In publication PMC7549094 (Journal of Medicinal Chemistry, 2020):

Experiments:
L. donovani = experiment: murine model of visceral leishmaniasis, liver parasite burden by qPCR; assay type: in vivo; conditions: mice infected with L. donovani; 1 mg/kg b.i.d. PO, 8 days
Source text: Formulation of study drugs for in vivo efficacy experiments. LXE408 administered to mice during efficacy experiments was formulated as a suspension in distilled water containing 0.5% methylcellulose and 0.5% Tween-80 (mouse model of visceral leishmaniasis) or hydroxypropylcellulose and Tween-80 (mouse models of cutaneous leishmaniasis). Miltefosine was formulated as a solution in distilled water containing 0.5% methylcellulose and 0.5% Tween-80.
Mouse model of visceral leishmaniasis. Female BALB/c mice (6-8 weeks old) were infected by tail vein injection with 4x 107 L. donovani MHOM/ET/67/HU3 splenic amastigotes. Seven days after infection, animals were orally dosed for 8 days with vehicle (0.5% MC/0.5% Tween-80 in distilled water), miltefosine (12 mg/kg once-daily), or LXE408 (twice-daily). At the end of treatment, liver samples were collected and L. donovani parasite burdens were quantified by qPCR as follows. L. donovani genomic DNA was extracted from drug-treated mice livers using the DNeasy Blood and Tissue Kit (Qiagen). Two types of DNA were quantified in parallel using the TaqMan assays for L. donovani major surface

[1] = brain/plasma exposure in mice; assay type: in vivo; conditions: mouse, brain, read-out: brain/plasma AUC ratio
[2] = metabolite profile in human hepatocytes; assay type: in vitro ADME; conditions: 10 μM of 1 for 4 h, UV 250 nm, normalized to largest peak
CYP2D15 = CYP2D15 (Canis lupus familiaris, UniProt Q29473); conditions: panel of dog recombinant CYP enzymes; 1 µM, 30 min
hr Ad2A = hr Ad2A (Homo sapiens, UniProt P29274); experiment: receptor profile (Table S4); assay type: binding
Chain of hr Ad2A (P29274 whole entry): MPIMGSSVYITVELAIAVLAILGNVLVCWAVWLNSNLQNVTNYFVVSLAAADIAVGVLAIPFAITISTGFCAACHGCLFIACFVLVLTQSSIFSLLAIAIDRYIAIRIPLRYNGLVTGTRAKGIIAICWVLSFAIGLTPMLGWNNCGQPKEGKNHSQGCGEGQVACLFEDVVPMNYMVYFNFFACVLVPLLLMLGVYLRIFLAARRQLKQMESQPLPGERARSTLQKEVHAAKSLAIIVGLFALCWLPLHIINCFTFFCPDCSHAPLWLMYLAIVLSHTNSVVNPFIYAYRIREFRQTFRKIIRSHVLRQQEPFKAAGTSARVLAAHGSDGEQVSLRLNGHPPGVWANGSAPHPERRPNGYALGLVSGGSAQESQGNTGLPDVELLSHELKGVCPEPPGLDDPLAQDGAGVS

hr Al1A antag = target: T1, hr Al1A antag (Homo sapiens, UniProt P35348); experiment: receptor profile (Table S4); assay type: biochemical
T1 sequence (P35348 1-466): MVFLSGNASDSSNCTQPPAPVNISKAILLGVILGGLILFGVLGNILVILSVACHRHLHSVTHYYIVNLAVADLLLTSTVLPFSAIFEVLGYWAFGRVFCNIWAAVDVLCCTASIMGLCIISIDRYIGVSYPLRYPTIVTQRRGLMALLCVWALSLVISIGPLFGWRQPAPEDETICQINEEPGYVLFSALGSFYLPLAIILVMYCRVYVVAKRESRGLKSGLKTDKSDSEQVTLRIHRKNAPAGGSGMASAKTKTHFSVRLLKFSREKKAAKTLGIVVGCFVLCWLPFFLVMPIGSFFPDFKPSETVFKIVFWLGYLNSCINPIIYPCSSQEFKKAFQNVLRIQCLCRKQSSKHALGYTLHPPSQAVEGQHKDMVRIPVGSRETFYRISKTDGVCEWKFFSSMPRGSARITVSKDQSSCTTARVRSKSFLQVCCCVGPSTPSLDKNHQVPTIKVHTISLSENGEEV

hr V1a = hr V1a (Homo sapiens, UniProt P37288); experiment: receptor profile (Table S4); assay type: binding
Chain of hr V1a (P37288 whole entry): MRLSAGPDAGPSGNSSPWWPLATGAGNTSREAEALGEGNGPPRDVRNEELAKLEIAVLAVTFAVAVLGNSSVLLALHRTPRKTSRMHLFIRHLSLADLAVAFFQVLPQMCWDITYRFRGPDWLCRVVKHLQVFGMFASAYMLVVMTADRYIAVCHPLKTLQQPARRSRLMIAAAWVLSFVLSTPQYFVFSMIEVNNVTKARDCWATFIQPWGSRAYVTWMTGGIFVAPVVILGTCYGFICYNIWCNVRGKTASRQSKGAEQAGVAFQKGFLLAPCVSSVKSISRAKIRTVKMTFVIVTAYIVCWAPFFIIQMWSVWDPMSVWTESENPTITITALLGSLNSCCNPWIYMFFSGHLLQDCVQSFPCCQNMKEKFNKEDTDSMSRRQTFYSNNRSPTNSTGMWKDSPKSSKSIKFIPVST

hr D1 antag = hr D1 antag (Homo sapiens, UniProt P21728); experiment: receptor profile (Table S4); assay type: biochemical
Chain of hr D1 antag (P21728 whole entry): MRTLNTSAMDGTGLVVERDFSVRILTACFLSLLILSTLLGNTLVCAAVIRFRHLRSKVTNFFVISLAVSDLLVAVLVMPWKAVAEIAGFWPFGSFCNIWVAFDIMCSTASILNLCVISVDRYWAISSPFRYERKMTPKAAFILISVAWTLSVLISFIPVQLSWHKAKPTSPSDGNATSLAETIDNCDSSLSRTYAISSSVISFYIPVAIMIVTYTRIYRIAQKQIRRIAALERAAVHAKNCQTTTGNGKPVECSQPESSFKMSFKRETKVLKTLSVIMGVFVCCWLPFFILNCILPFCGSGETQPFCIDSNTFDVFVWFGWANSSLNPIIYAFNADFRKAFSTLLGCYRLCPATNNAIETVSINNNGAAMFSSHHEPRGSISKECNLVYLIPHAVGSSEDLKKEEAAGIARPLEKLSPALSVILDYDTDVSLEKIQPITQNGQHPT

hr ETa = target: T2, hr ETa (Homo sapiens, UniProt P25101); experiment: receptor profile (Table S4); assay type: binding
T2 sequence (P25101 21-427): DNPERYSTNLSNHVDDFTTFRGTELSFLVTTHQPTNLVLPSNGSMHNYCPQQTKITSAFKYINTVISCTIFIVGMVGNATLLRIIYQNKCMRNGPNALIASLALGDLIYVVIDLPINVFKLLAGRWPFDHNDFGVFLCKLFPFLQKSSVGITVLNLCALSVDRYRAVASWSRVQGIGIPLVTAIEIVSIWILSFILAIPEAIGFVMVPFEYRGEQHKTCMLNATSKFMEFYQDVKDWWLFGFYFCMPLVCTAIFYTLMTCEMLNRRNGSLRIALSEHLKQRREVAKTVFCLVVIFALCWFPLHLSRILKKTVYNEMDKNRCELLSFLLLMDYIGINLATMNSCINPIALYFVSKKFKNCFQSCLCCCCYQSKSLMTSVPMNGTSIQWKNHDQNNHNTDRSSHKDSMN

hr H3 = hr H3 (Homo sapiens, UniProt Q9Y5N1); experiment: receptor profile (Table S4); assay type: binding
Chain of hr H3 (Q9Y5N1 whole entry): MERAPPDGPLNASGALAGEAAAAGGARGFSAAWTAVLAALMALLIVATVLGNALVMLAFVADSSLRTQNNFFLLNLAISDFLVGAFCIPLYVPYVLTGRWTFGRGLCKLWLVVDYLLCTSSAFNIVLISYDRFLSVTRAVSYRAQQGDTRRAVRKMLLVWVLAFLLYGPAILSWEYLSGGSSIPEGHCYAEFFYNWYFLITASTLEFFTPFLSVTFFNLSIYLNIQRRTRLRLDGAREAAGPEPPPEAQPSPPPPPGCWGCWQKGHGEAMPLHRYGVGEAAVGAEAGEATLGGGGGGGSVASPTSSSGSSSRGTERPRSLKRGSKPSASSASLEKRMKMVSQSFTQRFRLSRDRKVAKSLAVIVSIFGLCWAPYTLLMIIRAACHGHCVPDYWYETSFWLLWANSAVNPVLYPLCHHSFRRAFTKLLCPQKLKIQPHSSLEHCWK

hr ERa ag = hr ERa ag (Homo sapiens, UniProt P03372); experiment: receptor profile (Table S4); assay type: biochemical
Chain of hr ERa ag (P03372 whole entry): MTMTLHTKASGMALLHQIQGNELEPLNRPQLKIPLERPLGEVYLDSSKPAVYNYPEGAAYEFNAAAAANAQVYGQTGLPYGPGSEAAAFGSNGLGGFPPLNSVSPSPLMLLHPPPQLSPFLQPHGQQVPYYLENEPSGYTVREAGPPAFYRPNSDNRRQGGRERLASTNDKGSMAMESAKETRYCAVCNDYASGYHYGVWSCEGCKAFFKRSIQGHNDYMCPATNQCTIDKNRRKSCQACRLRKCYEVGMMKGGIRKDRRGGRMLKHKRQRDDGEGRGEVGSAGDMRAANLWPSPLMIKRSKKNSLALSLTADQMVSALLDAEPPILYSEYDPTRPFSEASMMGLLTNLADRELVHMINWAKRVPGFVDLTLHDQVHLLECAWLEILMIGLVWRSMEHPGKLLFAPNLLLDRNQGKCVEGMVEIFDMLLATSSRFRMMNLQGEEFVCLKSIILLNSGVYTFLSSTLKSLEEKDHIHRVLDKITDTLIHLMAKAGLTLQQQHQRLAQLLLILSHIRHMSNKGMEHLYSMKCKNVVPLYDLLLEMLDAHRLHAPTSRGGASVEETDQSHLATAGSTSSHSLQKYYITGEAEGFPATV

hr 5-HT2A antag = hr 5-HT2A antag (Homo sapiens, UniProt P28223); experiment: receptor profile (Table S4); assay type: biochemical
hr ACES = hr ACES (Homo sapiens, UniProt P22303); experiment: receptor profile (Table S4); assay type: biochemical
hr COX-2 = target: T3, hr COX-2 (Homo sapiens, UniProt P35354); experiment: receptor profile (Table S4); assay type: biochemical
T3 sequence (P35354 18-604): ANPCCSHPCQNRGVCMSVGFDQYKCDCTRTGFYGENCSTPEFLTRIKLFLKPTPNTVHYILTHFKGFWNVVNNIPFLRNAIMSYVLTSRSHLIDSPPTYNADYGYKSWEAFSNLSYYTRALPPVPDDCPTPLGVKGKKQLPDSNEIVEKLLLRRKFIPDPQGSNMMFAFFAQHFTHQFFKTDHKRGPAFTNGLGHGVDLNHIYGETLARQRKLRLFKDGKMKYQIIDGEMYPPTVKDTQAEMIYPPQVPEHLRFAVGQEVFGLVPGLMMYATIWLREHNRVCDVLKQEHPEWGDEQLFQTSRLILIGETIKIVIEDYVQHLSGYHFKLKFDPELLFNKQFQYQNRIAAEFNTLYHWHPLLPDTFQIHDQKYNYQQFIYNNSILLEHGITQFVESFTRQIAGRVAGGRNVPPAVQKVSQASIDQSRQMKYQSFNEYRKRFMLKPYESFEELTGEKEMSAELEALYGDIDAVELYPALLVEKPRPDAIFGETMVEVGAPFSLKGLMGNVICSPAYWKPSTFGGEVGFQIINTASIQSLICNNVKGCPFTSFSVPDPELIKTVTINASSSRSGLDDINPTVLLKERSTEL

hr ERBB2 = hr ERBB2 (Homo sapiens, UniProt P04626); experiment: receptor profile (Table S4); assay type: biochemical
Chain of hr ERBB2 (P04626 23-1255): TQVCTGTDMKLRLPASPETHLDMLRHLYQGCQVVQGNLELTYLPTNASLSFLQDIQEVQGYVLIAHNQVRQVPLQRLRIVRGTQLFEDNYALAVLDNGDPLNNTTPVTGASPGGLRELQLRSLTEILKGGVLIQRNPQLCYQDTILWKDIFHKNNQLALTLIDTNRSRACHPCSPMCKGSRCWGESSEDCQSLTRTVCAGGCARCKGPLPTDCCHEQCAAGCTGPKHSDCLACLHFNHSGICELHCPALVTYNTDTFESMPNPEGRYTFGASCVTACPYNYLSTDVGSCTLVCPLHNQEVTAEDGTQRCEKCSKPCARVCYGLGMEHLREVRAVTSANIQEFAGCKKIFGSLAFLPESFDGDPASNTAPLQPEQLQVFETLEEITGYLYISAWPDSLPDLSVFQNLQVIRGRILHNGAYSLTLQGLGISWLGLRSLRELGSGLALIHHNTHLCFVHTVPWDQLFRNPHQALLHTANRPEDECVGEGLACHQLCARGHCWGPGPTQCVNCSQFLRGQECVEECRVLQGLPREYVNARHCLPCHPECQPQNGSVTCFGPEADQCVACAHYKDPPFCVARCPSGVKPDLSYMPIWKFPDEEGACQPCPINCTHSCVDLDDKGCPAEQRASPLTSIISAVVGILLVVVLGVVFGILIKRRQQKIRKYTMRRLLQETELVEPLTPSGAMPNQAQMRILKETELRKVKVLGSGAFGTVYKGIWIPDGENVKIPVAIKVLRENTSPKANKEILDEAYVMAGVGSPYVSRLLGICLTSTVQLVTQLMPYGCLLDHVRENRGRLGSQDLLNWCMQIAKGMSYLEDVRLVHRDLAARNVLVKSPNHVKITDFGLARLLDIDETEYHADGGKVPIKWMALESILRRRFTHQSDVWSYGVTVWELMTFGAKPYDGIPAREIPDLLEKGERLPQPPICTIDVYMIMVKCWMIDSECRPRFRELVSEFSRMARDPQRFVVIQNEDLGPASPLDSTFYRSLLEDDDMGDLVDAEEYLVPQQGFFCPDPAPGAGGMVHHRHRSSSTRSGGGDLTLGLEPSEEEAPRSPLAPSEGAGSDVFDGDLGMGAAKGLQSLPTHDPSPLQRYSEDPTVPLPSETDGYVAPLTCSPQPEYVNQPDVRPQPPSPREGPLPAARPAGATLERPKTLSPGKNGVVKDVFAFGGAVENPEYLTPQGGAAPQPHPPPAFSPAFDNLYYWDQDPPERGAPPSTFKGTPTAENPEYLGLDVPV

hERG = hERG (Homo sapiens, UniProt Q12809); experiment: receptor profile (Table S4)
Chain of hERG (Q12809 whole entry): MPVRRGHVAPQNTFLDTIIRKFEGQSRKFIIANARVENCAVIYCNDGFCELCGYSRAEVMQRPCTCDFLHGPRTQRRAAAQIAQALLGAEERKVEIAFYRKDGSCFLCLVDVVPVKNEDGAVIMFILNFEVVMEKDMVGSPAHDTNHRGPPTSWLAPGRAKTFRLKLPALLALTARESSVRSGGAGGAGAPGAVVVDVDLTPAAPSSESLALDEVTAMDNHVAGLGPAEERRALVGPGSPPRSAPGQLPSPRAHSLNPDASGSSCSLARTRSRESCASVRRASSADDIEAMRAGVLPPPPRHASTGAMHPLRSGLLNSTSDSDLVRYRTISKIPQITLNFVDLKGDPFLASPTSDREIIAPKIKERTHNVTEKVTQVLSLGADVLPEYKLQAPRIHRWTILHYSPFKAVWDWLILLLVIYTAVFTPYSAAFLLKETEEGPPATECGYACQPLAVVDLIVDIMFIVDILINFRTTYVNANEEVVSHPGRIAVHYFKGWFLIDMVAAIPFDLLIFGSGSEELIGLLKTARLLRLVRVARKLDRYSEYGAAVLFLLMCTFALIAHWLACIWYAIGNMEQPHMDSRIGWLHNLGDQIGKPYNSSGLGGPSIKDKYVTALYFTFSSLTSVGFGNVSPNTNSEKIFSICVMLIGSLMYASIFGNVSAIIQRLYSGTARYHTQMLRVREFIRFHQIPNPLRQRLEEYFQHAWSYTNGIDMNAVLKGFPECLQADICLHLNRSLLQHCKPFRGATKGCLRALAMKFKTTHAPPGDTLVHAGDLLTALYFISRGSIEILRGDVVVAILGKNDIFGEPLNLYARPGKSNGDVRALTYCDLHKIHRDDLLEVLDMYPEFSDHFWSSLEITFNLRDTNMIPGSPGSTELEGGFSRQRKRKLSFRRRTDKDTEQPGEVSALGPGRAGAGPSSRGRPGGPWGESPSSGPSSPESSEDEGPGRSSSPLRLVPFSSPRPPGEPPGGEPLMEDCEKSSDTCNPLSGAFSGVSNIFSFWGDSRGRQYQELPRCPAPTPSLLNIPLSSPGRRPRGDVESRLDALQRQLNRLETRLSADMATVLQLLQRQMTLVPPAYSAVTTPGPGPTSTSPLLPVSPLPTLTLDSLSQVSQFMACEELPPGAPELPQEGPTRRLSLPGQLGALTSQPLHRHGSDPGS

Cc1nc(C)c(C(=O)Nc2ccc(F)c(-c3nc4ncc(-c5ncccc5C)cn4n3)c2)o1 [compound 1, N-(4-Fluoro-3-(6-(3-methylpyridin-2-yl)-[1,2,4]triazolo[1,5-a]pyrimidin-2-yl)phenyl)-2,4-dimethyloxazole-5-carboxamide]
reduction of parasite burden in the liver (L. donovani): 95%
Kp [1]: 0.03
abundance human [2]: +++ (+++ > 75%)
metabolism by dog recombinant CYP enzymes (CYP2D15): metabolized to 8 predominantly by CYP2D15
EC50/IC50 (hr Ad2A; hr Ad2A): > 30 µM
inhibition at 10 µM (hr Ad2A; read-out: % inh/act @ 10 µM): 26%
inhibition at 30 µM (hr Ad2A; read-out: % inh/act @ 30 µM): 52%
EC50/IC50 (hr Al1A antag; hr Al1A antag): > 30 µM
inhibition at 10 µM (hr Al1A antag; read-out: % inh/act @ 10 µM): -4%
inhibition at 30 µM (hr Al1A antag; read-out: % inh/act @ 30 µM): 8%
EC50/IC50 (hr V1a; hr V1a): > 30 µM
inhibition at 10 µM (hr V1a; read-out: % inh/act @ 10 µM): 11%
inhibition at 30 µM (hr V1a; read-out: % inh/act @ 30 µM): 19%
EC50/IC50 (hr D1 antag; hr D1 antag): > 30 µM
inhibition at 10 µM (hr D1 antag; read-out: % inh/act @ 10 µM): -11%
inhibition at 30 µM (hr D1 antag; read-out: % inh/act @ 30 µM): -5%
EC50/IC50 (hr ETa; hr ETa): > 30 µM
inhibition at 10 µM (hr ETa; read-out: % inh/act @ 10 µM): 2%
inhibition at 30 µM (hr ETa; read-out: % inh/act @ 30 µM): 13%
EC50/IC50 (hr H3; hr H3): > 30 µM
inhibition at 10 µM (hr H3; read-out: % inh/act @ 10 µM): 9%
inhibition at 30 µM (hr H3; read-out: % inh/act @ 30 µM): 14%
EC50/IC50 (hr ERa ag; hr ERa ag): > 30 µM
inhibition at 10 µM (hr ERa ag; read-out: % inh/act @ 10 µM): 7%
inhibition at 30 µM (hr ERa ag; read-out: % inh/act @ 30 µM): 15%
EC50/IC50 (hr 5-HT2A antag; hr 5-HT2A antag): > 10 µM
inhibition at 10 µM (hr 5-HT2A antag; read-out: % inh/act @ 10 µM): 34%
EC50/IC50 (hr ACES; hr ACES): > 30 µM
inhibition at 10 µM (hr ACES; read-out: % inh/act @ 10 µM): 16%
EC50/IC50 (hr COX-2; hr COX-2): > 30 µM
inhibition at 10 µM (hr COX-2; read-out: % inh/act @ 10 µM): 9%
inhibition at 30 µM (hr COX-2; read-out: % inh/act @ 30 µM): 13%
EC50/IC50 (hr ERBB2; hr ERBB2): > 30 µM
inhibition at 10 µM (hr ERBB2; read-out: % inh/act @ 10 µM): 0%
inhibition at 30 µM (hr ERBB2; read-out: % inh/act @ 30 µM): 0%
EC50/IC50 (hERG; hERG): > 30 µM
inhibition at 10 µM (hERG; human): -36%
inhibition at 30 µM (hERG; human): -25%
